Data on 4 molecules can be found in article PMC10530836, “Synthesis, Molecular Docking, and Biological Evaluation of Novel Anthranilic Acid Hybrid and Its Diamides as Antispasmodics” (International Journal of Molecular Sciences, 2023).

The nature of data set [1]: MTT cell viability assay. The data set is classed as cell-based, murine. The following applies: mouse, CCL-1 normal fibroblast cells (adherent); CCL-1, MTT, 72 h exposure, ± SD; read-out: In vitro cytotoxicity IC50. How it is done:
(§1) To evaluate the biocompatibility of the hybrid compounds, their in vitro antiproliferative activity was assessed in a panel of human malignant cell lines of different origin (K-562 and LAMA-84 suspension-growing myeloid leukemia cells, positive for the Philadelphia chromosome, and the urothelial bladder carcinoma cell line T-24 of adherent type). Non-malignant murine fibroblast cells (CCL-1) were also used as a screening platform. All cell lines were purchased from the German Collection of Microorganisms and Cell Cultures (DSMZ GmbH, Braunschweig, Germany). Cell cultures were cultivated in a growth medium RPMI 1640 supplemented with 10% fetal bovine serum (FBS), and 5% L-glutamine and were incubated under standard conditions of 37 °C and 5% humidified CO2 atmosphere. The effects of the newly synthesized anthranilic derivatives on cell viability were measured using a validated colorimetric assay for evaluating cell viability, known as the Mosmann MTT method. Exponential-phased cells were harvested and seeded (100 μL/well) in 96-well plates at the appropriate density (3 × 10^5 for the suspension cultures LAMA-84 and K-562 and 1.5 × 10^5 for the adherent T-24 and CCL-1 cells). Following a 24 h incubation, cells were treated with various concentrations of the experimental compounds in the concentration range of 200–12.5 μM. After an exposure time of 72 h, filter-sterilized MTT substrate solution (5 mg/mL in PBS) was added to each well of the culture plate. A further 2–4 h incubation allowed for the formation of purple insoluble formazan crystals. The latter was dissolved in isopropyl alcohol solution containing 5% formic acid prior to absorbance measurement at 550 nm. Collected absorbance values were blanked against MTT and isopropanol solution and normalized to the mean value of untreated control (100% cell viability).

Another data set has as its target T1, human albumin (Homo sapiens, UniProt P02768).
T1 construct: purchased Octapharma (IP) SPRL Albunorm 20
The data set is described as follows: Inhibition of albumin denaturation (anti-inflammatory activity). It is filed as biochemical. Conditions: heat-induced denaturation. How it is done:
Anti-denaturation assay was conducted as described by Kumari et al. with slight modifications. The reaction mixture consisted of 0.5 mL of 5% aqueous solution of human albumin (Albunorm 20, Octapharma (IP) SPRL, 1070 Anderlecht, Belgium) and 0.2 mL of the tested compound, dissolved in DMSO, at different concentrations (20–500 μg/mL). The samples were incubated at 37 °C for 15 min. After that, 2.5 mL phosphate-buffered saline (pH 6.3) was added to each tube and the samples were heated for 30 min to 80 °C and then cooled for 5 min. Turbidity was measured spectrophotometrically at 660 nm (Cary 60 UV-Vis, Agilent Technologies, Santa Clara, CA, USA). For the blank sample, a mixture of 2.5 mL buffer and 0.2 mL DMSO was used instead of the compounds, while the product control test lacked the compounds’ concentration having 0.5 mL serum albumin, and 2.5 mL buffer only. The percentage inhibition of protein denaturation was calculated as follows:Percentage of inhibition denaturation = (Absorbancecontrol − Absorbancesample) / Absorbancecontrol × 100
The control represents 100% protein denaturation.
Commercially available over-the-counter non-steroidal anti-inflammatory drugs diclofenac sodium and acetylsalicylic acid were used for comparison. Their anti-inflammatory effect was determined as a percentage of inhibition of albumin denaturation following the same protocol as for the novel compounds.

Data set [2] can be described thus: MTT cell viability assay. It is filed as cell-based. The following applies: human, 72 h exposure, ± SD, read-out: In vitro cytotoxicity IC50. The procedure: as §1
For data set [3], the system named is Salmonella enteritidis ATCC 13076. The data set is described as follows: Antimicrobial activity, agar well diffusion. The data set is classed as cell-based. Conditions: Dose 0.6 mg/disk, dwell = 6 mm. The source says:
(§2) Twenty tested microorganisms including six Gram-positive bacteria (Bacillus subtilis ATCC 6633, Bacillus amyloliquefaciens 4BCL-YT, Staphylococcus aureus ATCC 25923, Listeria monocytogenes NBIMCC 8632, Enterococcus faecalis ATCC 19433), six Gram-negative bacteria (Salmonella enteritidis ATCC 13076, Klebsiella sp.—clinical isolate, Escherichia coli ATCC 25922, Proteus vulgaris ATCC 6380, Pseudomonas aeruginosa ATCC 9027), two yeasts (Candida albicans NBIMCC 74, Saccharomyces cerevisiae ATCC 9763), and six fungi (Aspergillus niger ATCC 1015, Aspergillus flavus, Penicillium sp., Rhizopus sp., Mucor sp.—plant isolates, Fusarium moniliforme ATCC 38932) from the collection of the Department of Microbiology at the University of Food Technologies—Plovdiv, Bulgaria, were selected for the antimicrobial activity test. The antimicrobial activity of the samples was determined by the agar well diffusion method. The tested bacteria B. subtilis and B. amyloliquefaciens were cultured on LBG agar at 30 °C. The test bacteria S. aureus, L. monocytogenes, E. faecalis, S. enteritidis, Klebsiella sp., E. coli, P. vulgaris, and P. aeruginosa were cultured on LBG agar at 37 °C for 24 h. The yeast C. albicans was cultured on MEA at 37 °C, while S. cerevisiae was cultured on MEA at 30 °C for 24 h. The fungi A. niger, A. flavus, Penicillium sp., Rhizopus sp., Mucor sp., and F. moniliforme were grown on MEA at 30 °C for 7 days or until sporulation. The inocula of the tested bacteria/yeasts was prepared by homogenization of a small amount of biomass in 5 mL of sterile 0.5% NaCl. The inocula of tested fungi were prepared by the addition of 5 mL of sterile 0.5% NaCl into the tubes. After stirring by vortex V-1 plus (Biosan), they were filtered and replaced in other tubes before use. The number of viable cells and fungal spores was determined using a bacterial counting chamber Thoma (Poly-Optik, GmbH, Bad Blankenburg, Germany). Their final concentrations were adjusted to 10^8 cfu/mL for bacterial/yeast cells and 10^5 cfu/mL for fungal spores and then inoculated in preliminarily melted and tempered at 45–48 °C LBG/MEA agar media. Next, the inoculated media were transferred in a quantity of 18 mL in sterile Petri plates (d = 90 mm) (Gosselin™, Hazebrouck, France) and allowed to harden. Then, six wells (d = 6 mm) per plate were cut, and triplicates of 60 μL of each extract were pipetted into the agar wells. The Petri plates were incubated in identical conditions. The antimicrobial activity was determined by measuring the diameter of the inhibition zones around the wells on the 24th and 48th h of incubation. Tested microorganisms with inhibition zones of 18 mm or more were considered sensitive; moderately sensitive were those in which the zones were from 12 to 18 mm; resistant were those in which the inhibition zones were up to 12 mm or completely missing.

The test system of data set [4] is Pseudomonas aeruginosa ATCC 9027. The data set is described as follows: Antimicrobial activity, agar well diffusion. Conditions: Dose 0.6 mg/disk, dwell = 6 mm. The data set is classed as cell-based.
From the text: as §2

A further data set has as its system Penicillium chrysogenum. The data set is described as follows: Antimicrobial activity, agar well diffusion. The data set is classed as cell-based. Conditions: Dose 0.6 mg/disk, dwell = 6 mm.
From the text: as §2

The next data set has as its system Rhizopus sp. The data set is described as follows: Antimicrobial activity, agar well diffusion. The data set is classed as cell-based. Conditions: Dose 0.6 mg/disk, dwell = 6 mm.
From the text: as §2

In data set [5] the test system is Escherichia coli ATCC 25922. Kind of data set: Antimicrobial activity, agar well diffusion. The data set is classed as cell-based. Conditions: Dose 0.6 mg/disk, dwell = 6 mm.
From the text: as §2

In data set [6] the test system is Bacillus subtilis ATCC 6633. Kind of data set: Antimicrobial activity, agar well diffusion. Conditions: Dose 0.6 mg/disk, dwell = 6 mm. It is filed as cell-based.
From the text: as §2

In data set [7] the test system is Aspergillus niger ATCC 1015. The data set is described as follows: Antimicrobial activity, agar well diffusion. It is filed as cell-based. The following applies: Dose 0.6 mg/disk, dwell = 6 mm.
From the text: as §2

The next data set concerns Aspergillus flavus. Kind of data set: Antimicrobial activity, agar well diffusion. It is filed as cell-based. The following applies: Dose 0.6 mg/disk, dwell = 6 mm.
From the text: as §2

In data set [8] the test system is Micrococcus luteus 2YC-YT. Kind of data set: Antimicrobial activity, agar well diffusion. The data set is classed as cell-based. Conditions: Dose 0.6 mg/disk, dwell = 6 mm.
From the text: as §2

Data set [9] deals with Enterococcus faecalis ATCC 29212. Kind of data set: Antimicrobial activity, agar well diffusion. It is filed as cell-based. Conditions: Dose 0.6 mg/disk, dwell = 6 mm.
Data set [10] concerns Klebsiella pneumoniae ATCC 13883. The data set is described as follows: Antimicrobial activity, agar well diffusion. It is filed as cell-based. The following applies: Dose 0.6 mg/disk, dwell = 6 mm.
Data set [11] relates to Saccharomyces cerevisiae ATCC 9763. Kind of data set: Antimicrobial activity, agar well diffusion. The data set is classed as cell-based. Conditions: Dose 0.6 mg/disk, dwell = 6 mm.
From the text: as §2

The subject of data set [12] is Fusarium moniliforme ATCC 38932. The data set is described as follows: Antimicrobial activity, agar well diffusion. It is filed as cell-based. The following applies: Dose 0.6 mg/disk, dwell = 6 mm.
From the text: as §2

Data set [13] relates to Bacillus amyloliquefaciens 4BCL-YT. Kind of data set: Antimicrobial activity, agar well diffusion. It is filed as cell-based. The following applies: Dose 0.6 mg/disk, dwell = 6 mm.
From the text: as §2

In data set [14] the test system is Listeria monocytogenes NBIMCC 8632. Kind of data set: Antimicrobial activity, agar well diffusion. It is filed as cell-based. The following applies: Dose 0.6 mg/disk, dwell = 6 mm.
From the text: as §2

Data set [15] deals with Proteus vulgaris ATCC 6380. The data set is described as follows: Antimicrobial activity, agar well diffusion. The following applies: Dose 0.6 mg/disk, dwell = 6 mm. It is filed as cell-based.
From the text: as §2

Data set [16] relates to Salmonella typhimurium NBIMCC 1672. The data set is described as follows: Antimicrobial activity, agar well diffusion. It is filed as cell-based. The following applies: Dose 0.6 mg/disk, dwell = 6 mm.
From the text: as §2

Data set [17] concerns K-562, LAMA-84, T-24, CCL-1 cell lines. The arrangement: method as in PMID 36831141. Conditions: reference spasmolytic drug; cited from earlier work.
The subject of data set [18] is Gram-positive bacteria, Gram-negative bacteria, yeasts and fungi. Details: method as in PMID 36831141. The following applies: same concentration range; cited from earlier work.
Where [19] appears, read: K-562 myeloid leukemia cells (suspension), K-562, MTT.
The mark [20] stands for this setting: LAMA-84 myeloid leukemia cells (suspension), LAMA-84, MTT.
Setting [21] is: T-24 urothelial bladder carcinoma cells (adherent), T-24, MTT.

Where two headings read alike, the source gives them in different places. A value given as a limit tells only on which side of the number the result lay.

T1 sequence (P02768 25-609): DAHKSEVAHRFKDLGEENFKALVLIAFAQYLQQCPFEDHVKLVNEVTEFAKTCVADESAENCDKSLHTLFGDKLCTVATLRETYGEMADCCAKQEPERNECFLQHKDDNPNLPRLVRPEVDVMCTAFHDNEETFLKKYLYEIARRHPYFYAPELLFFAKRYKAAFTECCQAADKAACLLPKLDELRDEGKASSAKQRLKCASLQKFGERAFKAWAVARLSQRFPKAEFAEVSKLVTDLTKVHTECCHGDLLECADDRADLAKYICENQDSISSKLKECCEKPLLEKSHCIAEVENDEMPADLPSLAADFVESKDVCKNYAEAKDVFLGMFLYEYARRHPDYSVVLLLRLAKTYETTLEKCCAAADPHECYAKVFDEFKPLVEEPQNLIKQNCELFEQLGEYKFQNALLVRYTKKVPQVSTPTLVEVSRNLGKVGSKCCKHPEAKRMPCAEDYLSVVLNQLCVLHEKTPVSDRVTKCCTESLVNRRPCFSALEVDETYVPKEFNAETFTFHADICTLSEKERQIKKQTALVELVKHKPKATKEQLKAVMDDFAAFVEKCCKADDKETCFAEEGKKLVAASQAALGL

Regarding `O=C(Cc1ccccc1)Nc1ccccc1C(=O)NCCc1cccc(Cl)c1` [Compound 4c, N-(3-chlorophenethyl)-2-(2-phenylacetamido)benzamide], the IC50 at 72 h in “MTT cell viability assay [1]” is 69.5 ± 6.1 µM; in the data set “MTT cell viability assay [2]” (setting [19]) it was 27.4 ± 2.4 µM; in “MTT cell viability assay [2]” (setting [20]), 31.6 ± 1.1 µM; in “MTT cell viability assay [2]” (setting [21]) it was above 200 µM. This molecule had an IC50 at human albumin of 1710 µM. In addition, the “Inhibition Zones” value in [3] was 8 mm; in [4] it was 10 mm; with Penicillium chrysogenum, 8 mm; in the data set on Rhizopus sp. it was 8 mm; in data set [5], 10 mm; in data set [6], 9 mm. Moreover, the entries for the “Inhibition Zones” value (in [7]; in the data set with Aspergillus flavus; in [8]) were 10 mm, 8 mm and 12 mm, respectively.
For `O=C(Nc1ccccc1C(=O)NCCc1cccc(Cl)c1)c1ccccc1Cl` [Compound 4d, 2-chloro-N-(2-((3-chlorophenethyl)carbamoyl)phenyl)benzamide], the IC50 at 72 h in the data set “MTT cell viability assay [1]” was above 200 µM; in “MTT cell viability assay [2]” (setting [19]), 99.2 ± 8.8 µM; in “MTT cell viability assay [2]” (setting [20]), 183 ± 13.3 µM; in the data set “MTT cell viability assay [2]” (setting [21]) it was above 200 µM. The “Inhibition Zones” value in data set [9] came out at 8 mm; in [10], 8 mm; in data set [3] it was 10 mm; in data set [4], 10 mm; with Penicillium chrysogenum, 15 mm; in data set [11], 8 mm. In addition, the “Inhibition Zones” value in data set [12] is given as 8 mm; in the data set on Rhizopus sp., 9 mm; in data set [13], 10 mm; in data set [5] it was 12 mm; in data set [14], 11 mm; in [6], 11 mm. Moreover, the “Inhibition Zones” value is 10 mm in [7]; 11 mm with Aspergillus flavus; 8 mm in [15]; 12 mm in data set [8]; 12 mm in data set [16]. On human albumin, this molecule gave an IC50 of 1670 µM.
Turning to `O=C(NCCc1cccc(Cl)c1)c1ccccc1NC(=O)C(Cl)c1ccccc1` (centres unmarked) [Compound 4e, 2-(2-chloro-2-phenylacetamido)-N-(3-chlorophenethyl)benzamide], the IC50 at 72 h was found to be 69.1 ± 4.6 µM in the data set “MTT cell viability assay [1]”, 102 ± 7.9 µM in “MTT cell viability assay [2]” (setting [19]), 193 ± 14.7 µM in the data set “MTT cell viability assay [2]” (setting [20]) and 120 ± 9.9 µM in the data set “MTT cell viability assay [2]” (setting [21]). The “Inhibition Zones” value in data set [10] is recorded as 16 mm; in data set [3] it was 11 mm; in data set [4], 10 mm; with Penicillium chrysogenum, 8 mm; in data set [11], 8 mm; in data set [12] it was 8 mm. For the same molecule, the “Inhibition Zones” value turned out to be 9 mm with Rhizopus sp.; 10 mm in [5]; 9 mm in data set [14]; 10 mm in data set [6]; 10 mm in [7]; 8 mm in the data set with Aspergillus flavus. The “Inhibition Zones” value in [15] turned out to be 8 mm; in data set [8], 9 mm.
As for `CCN(CCCCOC(=O)c1ccc(OC)c(OC)c1)C(C)Cc1ccc(OC)cc1` (centres unmarked) [mebeverine], in data set [17], the half-inhibitory concentrations result is “under the hundred-micromolar range”. Moreover, the “antimicrobial activity (overall, in words)” value in data set [18] is listed as “did not show any antimicrobial activity”.
